The text below walks through data of ChEMBL document CHEMBL1129627, “Nonlinear quantitative structure-activity relationship for the inhibition of dihydrofolate reductase by pyrimidines” (J Med Chem, 1996).

For the experiment, the target named is T1, Dihydrofolate reductase (Escherichia coli, UniProt P0ABQ4).
T1 sequence (P0ABQ4 whole entry): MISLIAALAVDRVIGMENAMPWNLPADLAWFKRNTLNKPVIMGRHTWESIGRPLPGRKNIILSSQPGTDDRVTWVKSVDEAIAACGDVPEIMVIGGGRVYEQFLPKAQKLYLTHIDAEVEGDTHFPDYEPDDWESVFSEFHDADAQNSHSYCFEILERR
Description: Negative logarithm of inhibition constant (-log Ki) against Dihydrofolate reductase in Escherichia coli
The term Ki denotes the dissociation constant of the complex between target and ligand, obtained from inhibition or displacement. Higher therefore signals lower affinity. `COc1cc(CC2CN=C(N)N=C2N)ccc1Cc1ccccc1` (stereo unspecified) had a Ki of 29.5 nM. Under `CS(=O)(=O)Oc1cccc(CC2CN=C(N)N=C2N)c1` (stereo unspecified) stands 120 nM; under `NC1=NCC(Cc2ccc(O)cc2)C(N)=N1` (stereo unspecified), 355 nM; under `Cc1cc(CC2CN=C(N)N=C2N)cc(Cl)c1N` (stereo unspecified), 1.35 nM. The value for `COCCc1c(OC)cc(CC2CN=C(N)N=C2N)cc1OC` (stereo unspecified) was 4.47 nM; that for `NC1=NCC(Cc2cc(I)c(O)c(I)c2)C(N)=N1` (stereo unspecified) was 1.51 nM; that for `COCCCCCCCOc1c(OC)cc(CC2CN=C(N)N=C2N)cc1OC` (stereo unspecified) was 63.1 nM. The value for `CCc1cc(CC2CN=C(N)N=C2N)cc(CC)c1CC` (stereo unspecified) was 15.1 nM; that for `COc1ccc(CC2CN=C(N)N=C2N)cc1OS(C)(=O)=O` (stereo unspecified) was 15.8 nM; that for `CS(=O)(=O)Oc1ccc(CC2CN=C(N)N=C2N)cc1` (stereo unspecified) was 251 nM. On to `COCCC(=O)c1ccc(CC2CN=C(N)N=C2N)cc1C(=O)CCOC` (stereo unspecified), for which the Ki was 60.3 nM. As to `CCCCCCCCOc1c(OC)cc(CC2CN=C(N)N=C2N)cc1OC` (stereo unspecified), the Ki was 13.5 nM.

Take `Cc1cc(CC2CN=C(N)N=C2N)cc(C)c1O` (stereo unspecified): the affinity corresponds to a Ki of 27.5 nM. Compared with the last molecule, the Ki is about 2-fold higher. In turn, `NC1=NCC(Cc2cc(Br)c(N)c(Br)c2)C(N)=N1` (stereo unspecified) had an inhibition constant Ki of 1.41 nM. Under `NC1=NCC(Cc2ccc([N+](=O)[O-])cc2)C(N)=N1` (stereo unspecified) stands 631 nM; under `COc1ccc(CC2CN=C(N)N=C2N)cc1OCc1ccccc1` (stereo unspecified), 21.9 nM; under `COc1cc(CC2CN=C(N)N=C2N)cc(OC)c1OCc1ccccc1` (stereo unspecified), 3.8 nM. The value for `NC1=NCC(Cc2ccc3c(c2)OCCO3)C(N)=N1` (stereo unspecified) was 74.1 nM; that for `NC1=NCC(Cc2cc(Cl)c(N)c(Cl)c2)C(N)=N1` (stereo unspecified) was 1.35 nM.

Take `COCCOc1ccc(CC2CN=C(N)N=C2N)cc1OC` (stereo unspecified): affinity was put at a Ki of 17 nM.

In turn, `CCCOc1cc(CC2CN=C(N)N=C2N)cc(OCCC)c1` (stereo unspecified) gave a Ki of 38.9 nM.

As for `NC1=NCC(Cc2ccc(OCc3ccccc3)cc2)C(N)=N1` (stereo unspecified), the Ki was 129 nM.

`COc1ccc(CC2CN=C(N)N=C2N)cc1C(F)(F)F` (stereo unspecified): the Ki was 20.4 nM. The value for `COc1ccc(CC2CN=C(N)N=C2N)cc1O` (stereo unspecified) was 145 nM; that for `COc1cc(CC2CN=C(N)N=C2N)cc(OC)c1C` (stereo unspecified) was 2.69 nM; that for `CC(=O)Nc1ccc(CC2CN=C(N)N=C2N)cc1[N+](=O)[O-]` (stereo unspecified) was 107 nM. Turning to `COc1cc(CC2CN=C(N)N=C2N)ccc1OS(C)(=O)=O` (stereo unspecified), the affinity corresponds to a Ki of 11.5 nM. This Ki lies about 9.3-fold lower than the previous one. Under `CCCCCCOc1cccc(CC2CN=C(N)N=C2N)c1` (stereo unspecified) stands 138 nM. Under `COc1c(I)cc(CC2CN=C(N)N=C2N)cc1I` (stereo unspecified) stands 1.51 nM; under `NC1=NCC(Cc2ccc(OC(F)(F)F)cc2)C(N)=N1` (stereo unspecified), 269 nM; under `COCCCCCCCOc1cc(CC2CN=C(N)N=C2N)ccc1OC` (stereo unspecified), 69.2 nM. The value for `COc1c(C)cc(CC2CN=C(N)N=C2N)cc1C` (stereo unspecified) was 18.2 nM; that for `Cc1cc(C)cc(CC2CN=C(N)N=C2N)c1` (stereo unspecified) was 91.2 nM.

`COc1cc(CC2CN=C(N)N=C2N)cc(OC)c1Br` (stereo unspecified) gave a Ki of 6.61 nM. Under `COc1cc(CC2CN=C(N)N=C2N)ccc1O` (stereo unspecified) stands 28.8 nM.

For the molecule `CCCCCCOc1c(OC)cc(CC2CN=C(N)N=C2N)cc1OC` (stereo unspecified), the Ki is 13.5 nM. Against the preceding molecule, the Ki is about 2.1-fold lower.
